pEC50: −log10 of the molar value. Where two headings read alike, the source gives them in different places.
Columns and labels:
α1β2γ2 GABAA receptor = molecular target: T1, α1β2γ2 GABAA receptor (Homo sapiens, UniProt P14867+P47870); test: Patch clamp electrophysiology assay of recombinant α1β2γ2 GABAA receptors (potentiation of 2 μM GABA-evoked Cl- current); assay type: cell-based; settings: HEK293T cells stably transfected with α1β2γ2 GABAA; for pEC50: whole cell, 2 μM GABA, -80 mV; for Emax: HEK-293T, potentiation of 2 μM GABA current
T1 construct: expressed in transfected cells
Protocol: Cellular electrophysiology is used to measure the pharmacological properties of GABAA receptor modulators in heterologous cell systems. Each compound is tested for its ability to affect GABA mediated currents at a submaximal agonist dose (GABA EC20=2 μM). HEK293T cells are stably transfected with the α1β2γ2 subunits of the GABAA receptor. Flasks or dishes of HEK293 GABAA cells were maintained in the medium (DMEM, 11% (v/v) heat inactivated FBS, 100 or 200 μg/ml G418, 40 μg/ml Hygromycin B, 80 μg/ml Zeocin) and incubated at 37° C. in a humidified incubator with 5% CO2. 12 to 24 hours prior to electrophysiological recordings, the cells were plated on glass cover slips placed in culture dishes and maintained under the same incubation and media conditions. The number of cells being plated on the cover slip should reach a confluence rate at which majority of the cells are single.
For the electrophysiological recordings in the study the following external and internal solutions were used (Table 1):
HEKA EPC 10 USB patch clamp amplifier (from HEKA Elektronik, Germany) was used in the whole cell recording. A cover slip with plenty of single HEK293T-GABAA cells on the surface was removed and placed into a continuously perfused (approximately 1-2 ml/minute) recording chamber mounted on an inverted microscope. GABAA Cl^− current was recorded from single cell using standard whole cell recording techniques. 2 μM GABA was used to evoke GABAA Cl^− current (2 μM of GABA was the EC10-EC20 value of agonist GABA obtained internally on the stable GABAA cells used in this study). After achieving break-in (whole-cell) configuration, the cell was voltage clamped at a holding potential of −80 mV. Only stable cells meeting the recording parameters (membrane resistance Rm>500 MΩ, access resistance (Ra)<15 MΩ, leak current<100 pA in 90% of the recording time) were used. 2 μM GABA was applied to the cell to induce stable Cl^− current first as control for about 2 seconds, test compounds (i.e., compounds of formula (AI), (I), (AII), and (II), or any subgenera thereof) were followed to be applied to the cells for 3 min, then 2 μM GABA was applied to observe the potentiation effect on the GABAA Cl^− current. Different doses of test compound from low to high were applied to the same cell when the cell was stable. A cell was considered stable when current size evoked by 2 μM GABA applied to the cell from time to time was similar. To minimize the possible desensitation of GABAA Cl^− current, duration between applications of test articles was set to 180 seconds.
Test compounds were dissolved in DMSO to form stock solutions (10 mM). Test compounds were diluted to 0.003, 0.01, 0.03, 0.1, 0.3, 1, 3 and 10 μM in bath solution. AU concentrations of test articles were tested on each cell. Data were analyzed using software provided by HEKA, Microsoft Excel and Graphpad Prism (Table 2).

[1] = Mouse PK study (i.v. and p.o.); assay type: in vivo; settings: plasma, male CD1 mice; for half-life: read-out: T1/2 (hr) i.v. (converted); for Vd: read-out: Vss; for bioavailability: 5 mg/kg p.o. vs 1 mg/kg i.v.
Protocol: Test compounds were dosed to male CD1 mice at 5 mg/kg by oral gavage (p.o.) or 1 mg/kg by intravenous injection (i.v.). Blood samples were taken at 0.083, 0.25, 0.5, 1.0, 3.0, 6.0 and 24 hours post i.v. dosing and at 0.25, 0.5, 1.0, 3.0, 6.0 and 24 hours post p.o. dosing. The plasma concentration of compounds were determined by HPLC.

[2] = iv, 1 mg/kg i.v., read-out: AUClast (hr*ng/mL) i.v.
[3] = po, 5 mg/kg p.o., read-out: AUClast (hr*ng/mL) p.o.

T1 sequence (P14867 28-456): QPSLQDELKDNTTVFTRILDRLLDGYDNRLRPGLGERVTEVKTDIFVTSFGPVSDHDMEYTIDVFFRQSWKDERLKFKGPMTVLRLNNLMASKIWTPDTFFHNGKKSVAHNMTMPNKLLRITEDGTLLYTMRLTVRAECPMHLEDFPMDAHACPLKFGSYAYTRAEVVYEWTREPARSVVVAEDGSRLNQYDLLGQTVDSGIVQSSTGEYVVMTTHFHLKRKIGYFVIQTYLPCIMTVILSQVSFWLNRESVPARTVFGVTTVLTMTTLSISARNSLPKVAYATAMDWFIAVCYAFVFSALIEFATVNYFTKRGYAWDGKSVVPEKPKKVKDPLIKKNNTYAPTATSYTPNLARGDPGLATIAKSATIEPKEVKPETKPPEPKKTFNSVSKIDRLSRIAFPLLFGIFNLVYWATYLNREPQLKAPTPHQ
T1 sequence (P47870 25-512 limits assumed): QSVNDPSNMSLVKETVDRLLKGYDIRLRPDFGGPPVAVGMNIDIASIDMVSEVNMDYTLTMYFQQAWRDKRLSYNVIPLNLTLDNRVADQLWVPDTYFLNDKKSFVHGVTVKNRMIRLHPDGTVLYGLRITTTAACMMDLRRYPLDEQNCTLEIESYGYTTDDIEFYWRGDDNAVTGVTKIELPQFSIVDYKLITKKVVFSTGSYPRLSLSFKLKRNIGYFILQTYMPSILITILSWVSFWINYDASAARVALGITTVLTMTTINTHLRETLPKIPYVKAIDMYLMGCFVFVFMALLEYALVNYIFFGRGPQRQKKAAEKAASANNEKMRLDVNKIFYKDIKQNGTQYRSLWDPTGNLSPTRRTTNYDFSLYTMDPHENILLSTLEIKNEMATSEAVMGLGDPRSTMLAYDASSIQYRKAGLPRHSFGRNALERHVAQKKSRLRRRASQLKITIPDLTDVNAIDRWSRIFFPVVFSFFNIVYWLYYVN
T1 sequence (P18507 40-475 partner): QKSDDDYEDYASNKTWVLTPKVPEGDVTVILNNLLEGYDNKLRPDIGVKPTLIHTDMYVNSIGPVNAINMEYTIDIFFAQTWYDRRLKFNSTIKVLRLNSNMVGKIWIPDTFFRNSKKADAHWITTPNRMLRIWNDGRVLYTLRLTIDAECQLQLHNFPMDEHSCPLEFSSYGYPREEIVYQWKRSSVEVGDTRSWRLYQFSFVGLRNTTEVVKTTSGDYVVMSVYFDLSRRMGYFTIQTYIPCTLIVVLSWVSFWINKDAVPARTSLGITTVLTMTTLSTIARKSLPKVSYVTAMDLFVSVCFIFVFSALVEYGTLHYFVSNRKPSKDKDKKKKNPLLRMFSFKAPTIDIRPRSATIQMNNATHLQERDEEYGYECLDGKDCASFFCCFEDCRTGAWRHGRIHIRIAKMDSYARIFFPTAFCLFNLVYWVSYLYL

SMILES | pEC50 (α1β2γ2 GABAA receptor) | clearance ([1]; iv, 1 mg/kg i.v.) [mL/min/kg] | AUC(0-t) [1, 2] [ng·h/mL] | half-life ([1]; iv, 1 mg/kg i.v.) [h] | Vd ([1]; iv, 1 mg/kg i.v.) [L/kg] | Cmax ([1]; po, 5 mg/kg p.o.) [ng/mL] | Tmax ([1]; po, 5 mg/kg p.o.) [min] | bioavailability ([1]; po) [%] | AUC(0-t) [1, 3] [ng·h/mL] | Emax (α1β2γ2 GABAA receptor) [%]
CC(C)(C)n1nnn(CC(=O)[C@H]2CC[C@H]3[C@@H]4CC[C@@H]5C[C@](C)(O)CC[C@@H]5[C@H]4CC[C@]23C)c1=O [Example 5, 1-(tert-butyl)-4-(2-((3R,5R,8R,9R,10S,13S,14S,17S)-3-hydroxy-3,13-dimethylhexadecahydro-1H-cyclopenta[a]phenanthren-17-yl)-2-oxoethyl)-1,4-dihydro-5H-tetrazol-5-one] | 6.82 | 24.5 | 634 | 7.83 | 8.3 | 276 | 30 | 20.5 | 633 | 
COc1cccc(-n2nnn(CC(=O)[C@H]3CC[C@H]4[C@@H]5CC[C@@H]6C[C@](C)(O)CC[C@@H]6[C@H]5CC[C@]34C)c2=O)c1 [Example 16, 1-(2-((3R,5R,8R,9R,10S,13S,14S,17S)-3-hydroxy-3,13-dimethylhexadecahydro-1H-cyclopenta[a]phenanthren-17-yl)-2-oxoethyl)-4-(3-methoxyphenyl)-1,4-dihydro-5H-tetrazol-5-one] | 8.27 | 33 | 500 | 0.9 | 1.54 | 109 | 30 | 15.1 | 330 | 578
CCn1nnn(CC(=O)[C@H]2CC[C@H]3[C@@H]4CC[C@@H]5C[C@](C)(O)CC[C@@H]5[C@H]4CC[C@]23C)c1=O [Example 3, 1-ethyl-4-(2-((3R,5R,8R,9R,10S,13S,14S,17S)-3-hydroxy-3,13-dimethylhexadecahydro-1H-cyclopenta[a]phenanthren-17-yl)-2-oxoethyl)-1,4-dihydro-5H-tetrazol-5-one] | 7.03 | 24.3 | 673 | 0.57 | 0.93 | 973 | 30 | 40.5 | 1330 | 
C[C@@]1(O)CC[C@H]2[C@H](CC[C@@H]3[C@@H]2CC[C@]2(C)[C@@H](C(=O)Cn4nnn(C5CCCC5)c4=O)CC[C@@H]32)C1 [Example 8, 1-cyclopentyl-4-(2-((3R,5R,8R,9R,10S,13S,14S,17S)-3-hydroxy-3,13-dimethylhexadecahydro-1H-cyclopenta[a]phenanthren-17-yl)-2-oxoethyl)-1,4-dihydro-5H-tetrazol-5-one] | 7.02 | 140 | 117 | 0.73 | 2.38 | 22 | 39.6 | 4.48 | 26 | 
C[C@@]1(O)CC[C@H]2[C@H](CC[C@@H]3[C@@H]2CC[C@]2(C)[C@@H](C(=O)Cn4nnn(C(F)(F)F)c4=O)CC[C@@H]32)C1 [Example 22, 1-(2-((3R,5R,8R,9R,10S,13S,14S,17S)-3-hydroxy-3,13-dimethylhexadecahydro-1H-cyclopenta[a]phenanthren-17-yl)-2-oxoethyl)-4-(trifluoromethyl)-1,4-dihydro-5H-tetrazol-5-one] | 7.85 | 130 | 118 | 0.3 | 2.59 | 213 | 30 | 34.2 | 203 | 
C[C@@]1(O)CC[C@H]2[C@H](CC[C@@H]3[C@@H]2CC[C@]2(C)[C@@H](C(=O)Cn4nnn(-c5cocn5)c4=O)CC[C@@H]32)C1 [Example 24, 1-(2-((3R,5R,8R,9R,10S,13S,14S,17S)-3-hydroxy-3,13-dimethylhexadecahydro-1H-cyclopenta[a]phenanthren-17-yl)-2-oxoethyl)-4-(oxazol-4-yl)-1,4-dihydro-5H-tetrazol-5-one] | 7.19 | 15.5 | 998 | 1.57 | 1.87 | 775 | 180 | 172 | 9180 | 698
C[C@@]1(O)CC[C@H]2[C@H](CC[C@@H]3[C@@H]2CC[C@]2(C)[C@@H](C(=O)Cn4nnn(-c5cccnc5)c4=O)CC[C@@H]32)C1 [Example 18, 1-(2-((3R,5R,8R,9R,10S,13S,14S,17S)-3-hydroxy-3,13-dimethylhexadecahydro-1H-cyclopenta[a]phenanthren-17-yl)-2-oxoethyl)-4-(pyridin-3-yl)-1,4-dihydro-5H-tetrazol-5-one] | 7.41 | 56.5 | 270 | 0.29 | 1.33 | 297 | 60 | 50.1 | 692 | 757
C[C@@]1(O)CC[C@H]2[C@H](CC[C@@H]3[C@@H]2CC[C@]2(C)[C@@H](C(=O)Cn4nnn(-c5ccn[nH]5)c4=O)CC[C@@H]32)C1 [Example 25, 1-(2-((3R,5R,8R,9R,10S,13S,14S,17S)-3-hydroxy-3,13-dimethylhexadecahydro-1H-cyclopenta[a]phenanthren-17-yl)-2-oxoethyl)-4-(1H-pyrazol-5-yl)-1,4-dihydro-5H-tetrazol-5-one] | 6.89 | 6.5 | 2480 | 4.63 | 1.88 | 1190 | 180 | 106 | 12800 | 

— patent publication US20220089636A1, “TETRAZOLONE SUBSTITUTED STEROIDS AND USE THEREOF” (Beijing Xuanyi PharmaSciences Co., Ltd., priority 2019, published 2022)
